Source: EP0563386A1, “ANTICANCER COMPOSITION AND COMPOUND” (NIPPON SHINYAKU COMPANY, LIMITED, priority 1990, dated 1992)
Structures can show the parent of a compound that is named as a salt.

Assays:
[1] = tested on: WiDr (human colon cancer); test: Tumor growth inhibition, WiDr implant in nude mice (Test Example 1); format: in vivo, BALB/c nude mice; conditions: implant volume on day 18 after transplantation divided by volume at transplantation; irsogladine maleate 10 mg/kg orally once daily from day 14; cyclophosphamide 150 mg/kg intraperitoneally once on day 14; groups of 10
Method: WiDr (human colon cancer) cells subcultured in BALB/c nude mice were dissected to prepare cubes, about 2 mm³ each. These cubes were transplanted subaxillarily into separate BALB/c nude mice using a transplantation needle. The animals were divided into groups of 10 individuals on day 10 after transplantation and the body weight and the diameter of the implant were serially determined. As the compound of this invention, irsogladine maleate, 10 mg/kg, was suspended in 0.5% methylcellulose solution and administered orally once daily beginning day 14 after transplantation. Cyclophosphamide, 150 mg/kg, was dissolved in PBS and administered intraperitoneally once on day 14 after transplantation. The control group received 0.5% methylcellulose solution orally once daily beginning day 14 after transplantation.
The volume of the implant on day 18 after transplantation was divided by the volume at trans plantation. […]
The effect of the compound of this invention as an anticancer agent is clear.

Meth A fibrosarcoma = Meth A fibrosarcoma tumor volume in mice (Test Example 2); format: in vivo, BALB/c mice
Method: • (1) The homologus tumor Meth A fibrosarcoma subcultured (ascites type) in BALB/c mice, 5 x 10^5 cells, was transplanted subcutaneously at the flank of 6-week-old male BALB/c mice. Mice having a tumor volume of 70-100 mm³ were selected and divided into groups of 9. Oral single daily administration of the test compound was started and the body weight and tumor volume were serially determined. The volume was determined using the same calculation formula as shown in Test Example 1. The compound of the invention irsogladine maleate, 10 mg/kg, suspended in 0.5% methylcellulose maleate and 5-fluorouracil, 15 mg/kg, dissolved in 0.5% methylcellulose solution were respectively administered orally. The control group received 0.5% methylcellulose solution orally. […] The effect of the com pound of this invention as an anticancer agent is, thus, clear. • (2) As in the above test, mice having a tumor volume of 160-180 mm³ were selected and subjected to the same test as above. The compound of this invention irsogladine maleate, 10 mg/kg, 5-flurorouracil, 30 mg/kg, or as a combination therapy, irsogladine maleate, 10 mg/kg, plus 5-fluorouracil, 30 mg/kg, were administered orally. The control group received the same control material as in the above test orally. […] The anticancer adjuvant activity of the compound of this invention to 5-FU is clear.
The open circle stands for control, the open triangle for 5-FU and the closed circle for the compound of the invention. The tumor volume (mm³) is plotted on the vertical axis and the number of days after drug administration on the horizontal axis.
The open circle stands for control, the open triangle for F-5U, the closed circle for the compound of the invention, the open square for the combination therapy. The tumor volume (mm³) is plotted on the vertical axis and the number of days after drug administration on the horizontal axis.

cancer patients [2] = test: Clinical use with radiotherapy and chemotherapy, 45 cancer cases (Test Example 7); format: in vivo
Method: (§1) Predetermined radiotherapy [each proven focus was irradiated with cobalt 60 gamma rays, about 28 Gy, in simply divided doses at intervals of several days and oily bleomycin was administered intramuscularly in a dose range of 0.5-3 mg/day (a total of not more than 50 mg) 30 minutes before and 30 minutes after each irradiation] was given to the following cancer patients and concomitantly the following prescription was given orally.

cancer patients [3] = test: Clinical use with radiotherapy and chemotherapy, 39 case reports (Test Example 8); format: in vivo
Method: as §1, with “[…],” for “about 28 Gy,”
Following Test Example 7, the clinical effect was investigated. Radiotherapy, chemotherapy and administration of irsogladine maleate were performed in the same manner as in Test Example 7.

Q: With `Nc1nc(N)nc(-c2cc(Cl)ccc2Cl)n1` [irsogladine maleate] as the molecule, how does the Tumor volume ratio [1] read?
A: Its Tumor volume ratio is 1.52 ± 0.08.

Q: What about the “tumor volume (effect versus 5-FU)” value (Meth A fibrosarcoma; Test (1): start tumor volume 70-100 mm³, irsogladine maleate 10 mg/kg orally once daily, comparator 5-fluorouracil 15 mg/kg orally, Fig. 1) of the same molecule?
A: Its value is “effect comparable to that of 5-FU, 15 mg/kg”.

Q: And the “tumor-inhibitory effect, single drug” value (Meth A fibrosarcoma; Test (2): start tumor volume 160-180 mm³, irsogladine maleate 10 mg/kg or 5-fluorouracil 30 mg/kg orally, Fig. 2)?
A: Its value is “tumor-inhibitory effect”.

Q: What about the “tumor-inhibitory effect, combination therapy” value (Meth A fibrosarcoma; Test (2): start tumor volume 160-180 mm³, irsogladine maleate 10 mg/kg plus 5-fluorouracil 30 mg/kg orally, Fig. 2) of the same molecule?
A: The value was “more remarkable”.

Q: What about the “disappearance of tumor by palpation or diagnostic imaging” value (cancer patients [2]; 11 cases of breast cancer, 4 weeks after initiation, 2 mg/day x 2 orally with radiotherapy and chemotherapy) of the same molecule?
A: Its value is “disappearance of tumor was confirmed”.

Q: And the “disappearance of tumor by palpation or diagnostic imaging” value (cancer patients [2]; 13 cases of pharyngeal cancer and cancer of upper esophagus, 4 weeks after initiation, 2 mg/day x 2 orally with radiotherapy and chemotherapy)?
A: Its value is “disappearance of tumor was confirmed”.

Q: And the “cases with disappearance of tumor confirmed by palpation or diagnostic imaging” value (cancer patients [2]; all 45 cases of Test Example 7)?
A: Its value is 45 cases.

Q: And the “disappearance of tumor by palpation or diagnostic imaging” value (cancer patients [2]; five cases of rectal cancer, 4 weeks after initiation, 2 mg/day x 2 orally with radiotherapy and chemotherapy)?
A: The value was “disappearance of tumor was confirmed”.

Q: And the “disappearance of tumor by palpation or diagnostic imaging” value (cancer patients [2]; nine cases of maxillary cancer and epipharyngeal cancer, 4 weeks after initiation, 2 mg/day x 2 orally with radiotherapy, bleomycin, carmofur, doxifluridine, tegafur)?
A: Its value is “disappearance of tumor was confirmed”.

Q: And the “cases with disappearance of tumor histologically verified by biopsy” value (cancer patients [2]; of the 45 cases of Test Example 7)?
A: Its value is 14 cases.

Q: And the “disappearance of tumor by diagnostic imaging” value (cancer patients [2]; one case of stomach cancer, 4 weeks after initiation, 2 mg/day x 2 orally with radiotherapy and chemotherapy)?
A: The value was “disappearance of tumor was confirmed”.

Q: And the “disappearance of tumor by palpation or diagnostic imaging” value (cancer patients [2]; six cases of bladder cancer, renal cancer, ovarian cancer, etc., 4 weeks after initiation, 2 mg/day x 2 orally with radiotherapy and chemotherapy)?
A: Its value is “disappearance of tumor was confirmed”.

Q: What about the clinical outcome (cancer patients [3]; (1) case (1): person, SCC of the pharynx metastasized to the right neck, about 15 days, with irradiation and chemotherapy) of the same molecule?
A: The clinical outcome was “complete resoltuion of the tumor”.

Q: And the clinical outcome (cancer patients [3]; (1) case (2): person, SCC of the pharynx metastasized to the left neck, with radiotherapy and chemotherapy)?
A: The clinical outcome was “complete resolution of the tumor”.

Q: What about the clinical outcome (cancer patients [3]; (1) case (3): person, pharyngeal cancer with lymph node and lung metastasis, with radiotherapy and chemotherapy) of the same molecule?
A: The clinical outcome was “complete resolution of the tumor”.

Q: What about the clinical outcome (cancer patients [3]; (1) case (4): person, SCC of the anterior association of the vocal cord, pharyngeal cancer, with radiotherapy and chemotherapy) of the same molecule?
A: The clinical outcome was “complete resolution of the tumor”.

Q: And the clinical outcome (cancer patients [3]; (1) case (5): person, SCC of the pharynx, metastasis to the mediastinum, with radiotherapy and chemotherapy)?
A: Its clinical outcome is “complete resolution of the tumor”.

Q: And the clinical outcome (cancer patients [3]; (1) case (6): person, tumor in the anterior association of the vocal cord, with radiotherapy and chemotherapy)?
A: Its clinical outcome is “partial resolution of the tumor”.

Q: And the clinical outcome (cancer patients [3]; (1) case (7): person, SCC of the pharynx, with radiotherapy and chemotherapy)?
A: Its clinical outcome is “complete resolution of the tumor”.

Q: What about the clinical outcome (cancer patients [3]; (2) case (1): person, TCC of the ureter, after resection, with radiotherapy and chemotherapy) of the same molecule?
A: The clinical outcome was “complete resolution of the tumor”.

Q: What about the clinical outcome (cancer patients [3]; (2) case (2): person, TCC of the ureter, relapsed, with radiotherapy and chemotherapy) of the same molecule?
A: The clinical outcome was “partial resolution of the tumor”.

Q: What about the clinical outcome (cancer patients [3]; (3) case (1): person, SCC of the tongue, metastasis to the left neck, with radiotherapy and chemotherapy) of the same molecule?
A: The clinical outcome was “complete resolution of the tumor”.

Q: And the clinical outcome (cancer patients [3]; (3) case (2): person, SCC of the tongue with metastasis to the left neck, with radiotherapy and chemotherapy)?
A: The clinical outcome was “complete resolution of the tumor”.

Q: What about the clinical outcome (cancer patients [3]; (4) case (1): person, recurrent breast cancer with bone metastasis, with radiotherapy and chemotherapy) of the same molecule?
A: The clinical outcome was “died of injury of cervical vertebra and paraplegia”.

Q: What about the clinical outcome (cancer patients [3]; (4) case (2): person, recurrent breast cancer, invasive duct carcinoma, with radiotherapy and chemotherapy) of the same molecule?
A: The clinical outcome was “complete resolution of the tumor”.

Q: What about the clinical outcome (cancer patients [3]; (5) case (1): person, breast cancer (first on-set), 3 months, with radiotherapy, chemotherapy and resection) of the same molecule?
A: The clinical outcome was “complete resolution of the tumor”.

Q: And the clinical outcome (cancer patients [3]; (6) case (1): person, SCC of the epipharynx, metastases to lung and lumbar vertebra, with radiotherapy and chemotherapy)?
A: The clinical outcome was “partial resolution of the tumor”.

Q: And the clinical outcome (cancer patients [3]; (6) case (2): person, SCC of epipharynx with metastasis to the right neck, with radiotherapy and chemotherapy)?
A: Its clinical outcome is “complete resolution of the tumor”.

Q: What about the clinical outcome (cancer patients [3]; (6) case (3): person, pulmonary metastasis from epipharynx SCC, with radiotherapy and chemotherapy, patient later died after mixed infection) of the same molecule?
A: The clinical outcome was “tumor disappeared”.

Q: And the clinical outcome (cancer patients [3]; (6) case (4): person, maxillary/epipharyngeal cancer group, with irradiation and chemotherapy)?
A: The clinical outcome was “partially resolved”.

Q: And the clinical outcome (cancer patients [3]; (7) case (1): person, tumor of the right anterior ear, SCC of parotid gland, with radiation therapy and chemotherapeutic agents)?
A: The clinical outcome was “tumor disappeared”.

Q: What about the clinical outcome (cancer patients [3]; (7) case (2): person, SCC of the right external auditory canal, with radiotherapy, chemotherapy and resection) of the same molecule?
A: The clinical outcome was “complete resolution”.

Q: What about the clinical outcome (cancer patients [3]; (7) case (3): person, SCC relapsed in the left anterior ear, with radiotherapy, chemotherapy and resection) of the same molecule?
A: The clinical outcome was “completely disappeared”.

Q: And the clinical outcome (cancer patients [3]; (8) case (1): person, metastatic lung cancer, primary rectal cancer, dotted shadow of right lower lung field, with radiotherapy and chemotherapy)?
A: The clinical outcome was “reduced to 1/4”.

Q: What about the clinical outcome (cancer patients [3]; (8) case (2): person, metastatic lung cancer, primary hypopharynx cancer, with radiotherapy and chemotherapy) of the same molecule?
A: Its clinical outcome is “disappeared completely”.

Q: What about the clinical outcome (cancer patients [3]; (8) case (3): person, metastatic lung cancer, primary esophageal cancer (upper), with radiotherapy and chemotherapy) of the same molecule?
A: The clinical outcome was “disappeared completely”.

Q: And the clinical outcome (cancer patients [3]; (8) case (4): person, primary pharyngeal cancer, metastases to hili of the lung, with radiotherapy and chemotherapy)?
A: Its clinical outcome is “the enlargement of the pharynx and of the hili of the lung disappeared”.

Q: What about the clinical outcome (cancer patients [3]; (8) case (5): person, primary pancreatic carcinoma, pulmonary metastasis, with radiotherapy and chemotherapy) of the same molecule?
A: The clinical outcome was “disappeared completely”.

Q: And the clinical outcome (cancer patients [3]; (8) case (6): person, primary colon cancer, pulmonary metastasis, with radiotherapy and chemotherapy)?
A: Its clinical outcome is “Partial resolution”.

Q: What about the clinical outcome (cancer patients [3]; (9) case (1): person, recurrent ovarian cancer, with chemotherapeutic agents) of the same molecule?
A: The clinical outcome was “remained unchanged”.

Q: And the clinical outcome (cancer patients [3]; (9) case (2): person, ovarian cancer, metastases to Virchow's nodes, abdominal tumor, with radiotherapy and chemotherapy)?
A: The clinical outcome was “disappeared completely”.

Q: What about the clinical outcome (cancer patients [3]; (9) case (3): person, uterine cancer, SCC, with radiation therapy (40 Gy) and chemotherapy) of the same molecule?
A: Its clinical outcome is “partial resolution of the tumor”.

Q: What about the clinical outcome (cancer patients [3]; (9) case (4): person, stomach cancer with ascites, after resection, with irradiation and chemotherapy) of the same molecule?
A: The clinical outcome was “died of DIC”.

Q: And the clinical outcome (cancer patients [3]; (10) case (1): person, colorectal cancer, tubular ADC, with radiotherapy and chemotherapy)?
A: The clinical outcome was “died of mixed infection”.

Q: What about the clinical outcome (cancer patients [3]; (10) case (2): person, colorectal cancer with pulmonary and nodal metastasis, ascites, with radiotherapy and chemotherapy) of the same molecule?
A: Its clinical outcome is “ascites were reduced and the patient became ambulant”.

Q: And the clinical outcome (cancer patients [3]; (10) case (3): person, tumor of the right hypogastrium, CK and ADC, with radiotherapy and chemotherapy)?
A: Its clinical outcome is “ascites were removed”.

Q: What about the clinical outcome (cancer patients [3]; (11) case (1): person, liposarcoma of the left chest wall with metastasis to the right mediastinum, with radiotherapy and chemotherapy) of the same molecule?
A: The clinical outcome was “Partial resolution”.

Q: And the clinical outcome (cancer patients [3]; (11) case (2): person, pelvic chondrosarcoma, treatment from November 1990 with radiotherapy and chemotherapy)?
A: Its clinical outcome is “living as of February 1991”.

Q: What about the clinical outcome (cancer patients [3]; (11) case (3): person, chondrosarcoma of the right leg, pulmonary metastasis, with radiotherapy and chemotherapy) of the same molecule?
A: Its clinical outcome is “Pain was relieved”.

Q: What about the clinical outcome (cancer patients [3]; (11) case (4): person, malignant lymphoma, tumor 4 x 4 cm at start, with radiotherapy and chemotherapy) of the same molecule?
A: The clinical outcome was “Complete resolution”.

Q: What about the clinical outcome (cancer patients [3]; (11) case (5): person, malignant multiple schwannoma vertebrae, with radiotherapy and chemotherapy) of the same molecule?
A: The clinical outcome was “paralysis of limbs was found”.

Q: And the patients who died (cancer patients [3]; of the 39 patients of Test Example 8)?
A: The patients who died was “four”.

Q: And the “complete or partial resolution, overall” value (cancer patients [3]; summary of the 39 patients of Test Example 8)?
A: The value was “no patients in whom complete or partial resolution was not obtained”.
